Measurements as given in patent US20250255791A1, “POWDER COSMETIC CONTAINING ULTRAVIOLET WAVELENGTH-CONVERTING SUBSTANCE, AND METHOD FOR PRODUCING SAME” (Shiseido Company, Ltd., priority 2019, published 2025).

What was measured:
Human dermal fibroblasts [1] = test: Experiment 2: influence of C-phycocyanin concentration and UV intensity on cell activity (AlamarBlue); assay type: cell-based; details: UV 0-100 mJ/cm^2, FIG. 3
Procedure: (§1) A cell sample was prepared as follows: 1. Human dermal fibroblasts and human skin keratinocytes purchased from Kurabo Industries Ltd. were used. A cell suspension (1 mL) stored in liquid nitrogen was thawed in a water bath (37° C.) to an extent that small ice pellets remained, and then diluted with 9 mL of warm medium. 2. The diluted suspension was mixed gently and then transferred to a T75 flask and incubated overnight at 37° C. 3. The next day, the medium was replaced with 10 mL of fresh medium. 4. The medium was replaced periodically (once every 2 days for fibroblasts and once every 2 to 3 days for keratinocytes) and cell proliferation was continued. Meanwhile, the cells were observed using a microscope, and it was confirmed that the cells grew in the correct form. 5. After the cells reached about 80% confluence, the cells were passaged. The cells were passaged by washing the cells once with 10 mL of warm PBS, adding 5 mL of warm trypsin to a T75 flask, covering the bottom of the flask with a trypsin solution, followed by aspirating at room temperature for 1 minute. 6. The flask was allowed to stand in an oven at 37° C. for (maximum) 2 minutes for fibroblasts and (maximum) 7 minutes for keratinocytes. The cells were observed using a microscope and confirmed to be small and oval. 7. Thereafter, the side of the T75 flask was lightly tapped to release the cells. […]

Human dermal fibroblasts [2] = test: Experiment 3: restoration of cell activity decreased by prior UV irradiation (AlamarBlue); assay type: cell-based; details: pre-irradiation 400 mJ/cm^2 without substance, then UV 0-200 mJ/cm^2 through 0.4% or 2% solution; FIG. 5
Procedure: as §1

In the case of C-phycocyanin, the “cell activity (relative fluorescence intensity) on UV irradiation” value (Human dermal fibroblasts [1]; 0.4% C-phycocyanin solution) is reported as “the decrease in cell activity was suppressed”, the “cell activity (relative fluorescence intensity) on UV irradiation versus no UV irradiation” value (Human dermal fibroblasts [1]; 2% C-phycocyanin solution) is reported as “the cell activity was even increased” and the “cell activity of cells whose activity was once decreased by UV irradiation” value (Human dermal fibroblasts [2]) is reported as “cell activity was recovered”.
